In US20250313548A1 (Actio Biosciences, Inc., priority 2023, published 2025) one finds IC50 data, which are given here for 40 molecules.

A value given as a limit tells only on which side of the number the result lay.

Chain of human, KCNT1 (Q5JUK3 whole entry): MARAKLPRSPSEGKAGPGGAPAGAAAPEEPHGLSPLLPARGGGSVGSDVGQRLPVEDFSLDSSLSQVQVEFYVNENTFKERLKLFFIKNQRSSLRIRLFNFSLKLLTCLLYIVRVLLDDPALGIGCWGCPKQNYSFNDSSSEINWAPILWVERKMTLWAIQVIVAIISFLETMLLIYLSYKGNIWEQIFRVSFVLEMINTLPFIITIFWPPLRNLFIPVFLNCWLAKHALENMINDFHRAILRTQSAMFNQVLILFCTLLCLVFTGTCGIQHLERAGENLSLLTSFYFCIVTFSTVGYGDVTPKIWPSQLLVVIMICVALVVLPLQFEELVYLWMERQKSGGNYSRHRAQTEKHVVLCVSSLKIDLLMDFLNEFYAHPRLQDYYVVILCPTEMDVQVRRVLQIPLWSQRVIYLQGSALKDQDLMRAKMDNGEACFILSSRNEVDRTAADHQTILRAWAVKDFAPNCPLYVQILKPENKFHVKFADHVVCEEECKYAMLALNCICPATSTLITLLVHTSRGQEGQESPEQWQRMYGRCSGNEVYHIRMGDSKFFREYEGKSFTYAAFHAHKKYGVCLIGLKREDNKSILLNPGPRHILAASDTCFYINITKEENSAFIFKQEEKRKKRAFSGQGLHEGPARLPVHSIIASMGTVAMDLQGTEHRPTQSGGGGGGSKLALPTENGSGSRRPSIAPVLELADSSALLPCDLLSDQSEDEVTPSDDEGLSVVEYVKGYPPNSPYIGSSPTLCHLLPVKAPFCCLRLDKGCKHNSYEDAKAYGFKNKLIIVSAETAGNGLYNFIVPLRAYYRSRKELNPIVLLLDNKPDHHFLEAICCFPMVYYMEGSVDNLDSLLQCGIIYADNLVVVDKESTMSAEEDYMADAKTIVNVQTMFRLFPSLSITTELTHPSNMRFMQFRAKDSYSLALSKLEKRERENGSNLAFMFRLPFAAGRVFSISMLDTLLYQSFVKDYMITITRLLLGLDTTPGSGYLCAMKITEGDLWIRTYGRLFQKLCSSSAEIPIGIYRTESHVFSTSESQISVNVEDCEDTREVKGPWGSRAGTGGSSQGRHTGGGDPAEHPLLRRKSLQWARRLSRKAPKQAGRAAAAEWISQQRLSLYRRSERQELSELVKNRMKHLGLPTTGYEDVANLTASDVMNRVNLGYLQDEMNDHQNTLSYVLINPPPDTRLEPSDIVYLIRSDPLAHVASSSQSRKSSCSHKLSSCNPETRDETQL

This assay has as its target human, KCNT1 (Homo sapiens (Human), UniProt Q5JUK3). Briefly: FLIPR Tl/K Flux Assay. The format is cell-based. Conditions: HEK293 cells stably expressing human KCNT1; Tl+ flux stimulated with EC80 of agonist Loxapine. In a few lines:
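HEK293 cells stably expressing human KCNT1 were loaded with FLIPR potassium dye in HEPES/HBSS pH 7.4 with 5 mM probenecid, 1 h at 25 °C, then given test compound for 30 min at 25 °C. Tl+ flux was triggered with chloride-free buffer containing Tl+ and EC80 loxapine and read 160 s. IC50 came from Hill fits of % inhibition.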
With `COc1cc(-c2nc3c(o2)[C@@H](NC(=O)c2ccnc(OC(F)(F)F)c2)CCC3)ccn1` [Compound I-135a, (S)-N-(2-(2-Methoxypyridin-4-yl)-4,5,6,7-tetrahydrobenzo[d]oxazol-7-yl)-2-(trifluoromethoxy)isonicotinamide], the IC50 was below 0.25 µM.
As for `Cn1nc(C(F)(F)F)cc1C(=O)N[C@H]1CCc2cnc(-c3ccnc(C(F)(F)F)c3)nc21` [Compound I-46a, (S)-1-Methyl-3-(trifluoromethyl)-N-(2-(2-(trifluoromethyl)pyridin-4-yl)-6,7-dihydro-5H-cyclopenta[d]pyrimidin-7-yl)-1H-pyrazole-5-carboxamide], the IC50 is 0.25 to 0.5 µM.
Molecule `CC(C)(C)OC(=O)N[C@@H]1CCc2nn(-c3ccnc(C(F)(F)F)c3)cc21` [Compound I-105b] displayed an IC50 above 1 µM.
`O=C(N[C@H]1CCCn2nc(-c3ccnc(C(F)(F)F)c3)cc21)c1cc(C(F)(F)F)nn1C1CC1` [Compound I-371a] registered an IC50 below 0.25 µM.
`CC(F)(F)c1cc(-c2nc3c(o2)CCC[C@@H]3NC(=O)c2cncc(C(F)(F)F)c2)ccn1` [Compound I-533a, (S)—N-(2-(2-(1,1-Difluoroethyl)pyridin-4-yl)-4,5,6,7-tetrahydrobenzo[d]oxazol-4-yl)-5-(trifluoromethyl)nicotinamide] returned an IC50 below 0.25 µM.
In the case of `COc1cc(F)cc(C(=O)N[C@H]2CCc3nn(-c4ccnc(C(F)(F)F)c4)cc32)c1` [Compound I-561a, (S)-3-Fluoro-5-methoxy-N-(2-(2-(trifluoromethyl)pyridin-4-yl)-2,4,5,6-tetrahydrocyclopenta[c]pyrazol-4-yl)benzamide], the half-inhibitory concentration (IC50) is below 0.25 µM.
As to `Cc1ccc(C(=O)N[C@@H]2CCc3nn(-c4ccnc(C(F)(F)F)c4)cc32)c(C)c1` [Compound I-93b], the IC50 is above 1 µM.
As for `Cc1cc(Cl)cc(C(=O)N[C@H]2CCc3nn(-c4ccnc(C(F)(F)F)c4)cc32)c1` [Compound I-98a], the IC50 is below 0.25 µM.
To `N#Cc1cc(F)cc(C(=O)N[C@H]2CCCn3nc(-c4ccnc(C5CC5)c4)cc32)c1` [Compound I-262a] belongs below 0.25 µM.
Consider `O=C(N[C@H]1CCn2nc(-c3cc(C4CC4)ncc3F)cc21)C12CC(C(F)(F)F)(C1)C2` [Compound I-559a, (S)-N-(2-(2-Cyclopropyl-5-fluoropyridin-4-yl)-5,6-dihydro-4H-pyrrolo[1,2-b]pyrazol-4-yl)-3-(trifluoromethyl)bicyclo[1.1.1]pentane-1-carboxamide], for which the IC50 was below 0.25 µM.
To `Cc1nc(C(F)(F)F)sc1C(=O)N[C@H]1CCCn2nc(-c3ccnc(C(F)(F)F)c3)cc21` [Compound I-358a] belongs below 0.25 µM.
To `COc1cc(-c2cc3n(n2)CCCC[C@@H]3NC(=O)c2cccc(C#N)c2)ccn1` [Compound I-456a] belongs below 0.25 µM.
For `Cn1nc(C(F)(F)F)cc1C(=O)N[C@H]1CCn2nc(-c3ccnc(C4CC4)c3)cc21` [Compound I-68a], the IC50 was below 0.25 µM.
Then `N#Cc1cc(C(=O)N[C@H]2CCCn3nc(-c4ccnc(C(F)(F)F)c4)cc32)cc(C2CC2)c1` [Compound I-333a, (S)-3-Cyano-5-cyclopropyl-N-(2-(2-(trifluoromethyl)pyridin-4-yl)-4,5,6,7-tetrahydropyrazolo[1,5-a]pyridin-4-yl)benzamide], with below 0.25 µM; and `O=C(N[C@H]1CCCc2nc(-c3ccnc(C(F)(F)F)c3)oc21)C12CC(C(F)(F)F)(C1)C2` [Compound I-515a], with below 0.25 µM; and `O=C(N[C@H]1CCCc2nn(-c3ccnc(C4CC4)c3)cc21)c1cc(Cl)cc(C(F)(F)F)c1` [Compound I-5a], with below 0.25 µM.
To `O=C(N[C@H]1CCCn2nc(-c3ccnc(C(F)(F)F)c3)cc21)c1ccc2ccnn2c1` [Compound I-400a] belongs below 0.25 µM; to `Cn1nc(C(F)(F)F)cc1C(=O)N[C@H]1CCCc2sc(-c3ccnc(C(F)(F)F)c3)cc21` [Compound I-79a], below 0.25 µM.
With `N#Cc1cccc(C(=O)N[C@H]2CCCc3oc(-c4ccnc(C(F)(F)F)c4)nc32)c1` [Compound I-297a, (S)-3-Cyano-N-(2-(2-(trifluoromethyl)pyridin-4-yl)-4,5,6,7-tetrahydrobenzo[d]oxazol-4-yl)benzamide], the IC50 is below 0.25 µM.
Turning to `Cn1nc(C(F)(F)F)cc1C(=O)N[C@H]1CCc2nn(-c3ccnc(OC(F)(F)F)c3)cc21` [Compound I-73a], the IC50 was below 0.25 µM.
Take `CN(C(=O)N[C@H]1CCc2nn(-c3ccnc(C(F)(F)F)c3)cc21)c1ccccc1` [Compound I-102a]: the IC50 was below 0.25 µM.
Regarding `COc1cc(C(=O)N[C@H]2CCCn3nc(-c4ccnc(C(F)(F)F)c4)cc32)nc(C(F)(F)F)n1` [Compound I-424a], the IC50 is below 0.25 µM.
To `Cn1nc(C(F)(F)F)nc1C(=O)N[C@@H]1CCn2nc(-c3ccnc(C(C)(F)F)c3)cc21` [Compound I-480b] belongs 0.5 to 1 µM; to `Cn1nc(C(F)(F)F)nc1C(=O)N[C@H]1CCn2nc(-c3ccnc(C(F)(F)F)c3)cc21` [Compound I-314a, (S)-1-Methyl-3-(trifluoromethyl)-N-(2-(2-(trifluoromethyl)pyridin-4-yl)-5,6-dihydro-4H-pyrrolo[1,2-b]pyrazol-4-yl)-1H-1,2,4-triazole-5-carboxamide], below 0.25 µM.
Then `Cn1nc2ccccc2c1C(=O)NC1CCCc2nn(-c3ccnc(C(F)(F)F)c3)cc21` (racemic) [Compound I-26, (rac)-2-Methyl-N-(2-(2-(trifluoromethyl)pyridin-4-yl)-4,5,6,7-tetrahydro-2H-indazol-4-yl)-2H-indazole-3-carboxamide], with 0.25 to 0.5 µM; and `COCc1cc(C(=O)NC2CCCc3nn(-c4ccnc(C(F)(F)F)c4)cc32)n(C)n1` (racemic) [Compound I-23, (rac)-3-(Methoxymethyl)-1-methyl-N-(2-(2-(trifluoromethyl)pyridin-4-yl)-4,5,6,7-tetrahydro-2H-indazol-4-yl)-1H-pyrazole-5-carboxamide], with above 1 µM; and `Cn1nc(C(F)(F)F)cc1C(=O)N[C@H]1CCCc2oc(-c3cc(C(F)(F)F)ncc3Cl)nc21` [Compound I-189a], with below 0.25 µM.
In the case of `O=C(N[C@H]1CCn2nc(-c3ccnc(C(F)(F)F)c3)cc21)[C@@H]1C[C@H]1C(F)(F)F` [I-488^, (1R,2R)-2-(trifluoromethyl)-N—((S)-2-(2-(trifluoromethyl)pyridin-4-yl)-5,6-dihydro-4H-pyrrolo[1,2-b]pyrazol-4-yl)cyclopropane-1-carboxamide], the IC50 is below 0.25 µM.
`Cn1nc(C(F)(F)F)cc1C(=O)N[C@H]1CCCc2nc(-c3ccnc(C(F)(F)F)c3)sc21` [Compound I-82a] yielded an IC50 below 0.25 µM.
As to `Cn1nc(C(F)(F)F)cc1C(=O)N[C@H]1CCc2nn(-c3ccnc(C(F)(F)F)c3)cc21` [Compound I-1a, (S)-1-Methyl-3-(trifluoromethyl)-N-(2-(2-(trifluoromethyl)pyridin-4-yl)-2,4,5,6-tetrahydrocyclopenta[c]pyrazol-4-yl)-1H-pyrazole-5-carboxamide], the IC50 is below 0.25 µM.
`Cn1nc(C(F)(F)F)cc1C(=O)N[C@@H]1CCCc2nn(-c3ccnc(C(F)(F)F)c3)cc21` [Compound I-4b, (R)-1-Methyl-3-(trifluoromethyl)-N-(2-(2-(trifluoromethyl)pyridin-4-yl)-4,5,6,7-tetrahydro-2H-indazol-4-yl)-1H-pyrazole-5-carboxamide] came in with an IC50 above 1 µM.
On to `O=C(N[C@H]1CCCn2nc(-c3ccnc(C(F)(F)F)c3)cc21)c1cc2n(n1)CCO2` [Compound I-436a], for which the IC50 was above 1 µM.
Molecule `Cn1nc(C(F)(F)F)cc1C(=O)N[C@H]1CCCn2nc(-c3cnc(C(F)(F)F)o3)cc21` [Compound I-317a, (S)-1-Methyl-3-(trifluoromethyl)-N-(2-(2-(trifluoromethyl)oxazol-5-yl)-4,5,6,7-tetrahydropyrazolo[1,5-a]pyridin-4-yl)-1H-pyrazole-5-carboxamide] had a half-maximal inhibitory concentration (IC50) of 0.5 to 1 µM.
As to `N#Cc1cc(C(=O)N[C@H]2CCn3nc(-c4ccnc(C(F)(F)F)c4)cc32)ccc1F` [Compound I-266a, (S)-3-Cyano-4-fluoro-N-(2-(2-(trifluoromethyl)pyridin-4-yl)-5,6-dihydro-4H-pyrrolo[1,2-b]pyrazol-4-yl)benzamide], the IC50 is below 0.25 µM.
To `O=C(N[C@H]1CCn2nc(-c3ccnc(C(F)(F)F)c3)cc21)c1cn(C(F)(F)F)nc1C(F)(F)F` [Compound I-521a, (S)-1,3-bis(trifluoromethyl)-N-(2-(2-(trifluoromethyl)pyridin-4-yl)-5,6-dihydro-4H-pyrrolo[1,2-b]pyrazol-4-yl)-1H-pyrazole-4-carboxamide] belongs below 0.25 µM.
To `COc1cc(-c2nc3c(o2)CCC[C@H]3NC(=O)c2cncc(C(F)(F)F)n2)ccn1` [Compound I-471b] belongs 0.5 to 1 µM; to `Cc1cnc(C(F)(F)F)cc1-c1cc2n(n1)CCC[C@@H]2NC(=O)c1cc(C(F)(F)F)nn1C` [Compound I-122a, (S)-1-Methyl-N-(2-(5-methyl-2-(trifluoromethyl)pyridin-4-yl)-4,5,6,7-tetrahydropyrazolo[1,5-a]pyridin-4-yl)-3-(trifluoromethyl)-1H-pyrazole-5-carboxamide], below 0.25 µM.
`O=C(N[C@H]1CCCn2nc(-c3ccnc(C4CC4)c3)cc21)c1ccnc(OC(F)(F)F)c1` [Compound I-193a, (S)-N-(2-(2-Cyclopropylpyridin-4-yl)-4,5,6,7-tetrahydropyrazolo[1,5-a]pyridin-4-yl)-2-(trifluoromethoxy)isonicotinamide] yielded a 50% inhibitory concentration (IC50) below 0.25 µM.
In the case of `Cn1nc(C(F)(F)F)cc1C(=O)NC1CCCn2nc(-c3ccnc(C(F)(F)F)c3)cc2C1` (stereo not shown) [Compound I-465], the IC50 is below 0.25 µM.
In the case of `Cc1cc(C)cc(C(=O)N[C@@H]2CCc3nn(-c4ccnc(C(F)(F)F)c4)cc32)c1` [Compound I-372b], the IC50 was 0.5 to 1 µM.

For orientation: IC50 means the concentration that inhibits the measured activity by half. Read a low IC50 as inhibition by little substance.
